Assay [1] relates to GLIS3−/− PP2-β cells. Kind of assay: Cell apoptosis rate (cleaved caspase-3+ INS+ cells in INS+ cells) and INS+ cell number, high content imaging. As to conditions: for cell apoptosis rate: INS-GFP+ GLIS3−/− PP2-β cells. In kind it is cell-based, human. How it is done:
Immunofluorescence staining. Cells were fixed in 4% paraformaldehyde solution (Affymetrix) for 20 min, then blocked and permeabilized in PBS solution containing 5% horse serum and 0.3% Triton for 1 hr at room temperature. The cells were incubated with primary antibodies overnight at 4 C followed by 1 hr incubation with fluorescence-conjugated secondary antibodies (Alexafluor, ThermoFisher Scientific) at RT. For pSMAD2/3 staining, cells were permeabilized with ice-cold methanol at ˜20 C for 10 min after fixation and prior to blocking. The following primary antibodies were used: anti-OCT4 (1:200, Santa Cruz), anti-SOX17 (1:500, R&D), anti-PDX1 (1:500, R&D), anti-SOX9 (1:1000, Millipore), anti-NKX6.1 (1:500, DSHB), anti-NKX2.2 (1:500, DSHB), anti-PAX6 (1:1000, Covance), anti-ISL1 (1:200, DSHB), anti-UCN3 (1:500, Phoenix Pharmaceuticals), anti-NGN3 (1:500, R&D), anti-chromogranin A (1:1000, Immunostar), anti-glucagon (1:2000, Sigma) anti-somatostatin (1:1000, DAKO), anti-ghrelin (1:500, Santa Cruz), anti-insulin (1:500, DAKO) and anti-cleaved caspase-3 (1:1000, BD Biosciences), anti-pSMAD2/3 (1:200, Cell Signaling).
High throughput chemical screening. To perform the high throughput small molecule screening, GLIS3^−/− cells at D26_L were dissociated using Accutase and replated onto 804G-coated 384-well plates at 20,000 cells/80 μl medium/well. After 8 hr, cells were treated at 1 μM and 10 μM with compounds from an in-house library of 300 signaling pathway modulators, an epigenetics library (Cayman Chemical), Prestwick library of approved drugs (FDA, EMA and other agencies), LOPAC (Sigma Aldrich) and the MicroSource library totaling 5000 chemicals. DMSO treatment was used as a negative control. Untreated wells containing WT cells were included as positive control. After 4 days of culture, cells were first stained with 2.5 μg/mL PI and then fixed and stained using antibodies against Insulin (DAKO) and cleaved caspase-3 (BD biosciences). Plates were analyzed using a Molecular Devices ImageXpress High-Content Analysis System. Two-dimensional analysis was used. Compounds inducing lower % cleaved caspase-3 (Z-score<−1.5) and a similar or higher number of INS^+ cells compared to DMSO treated wells were selected as primary hits.

In assay [2] the test system is GLIS3−/− PP2-β cells. Kind of assay: Cell death rate (PI+ INS+ cells in INS+ cells), propidium iodide staining. In kind it is cell-based, human. The settings on record: for cell death rate: INS-GFP+ GLIS3−/− PP2-β cells. As to the method:
Propium iodide cell viability staining. Cells at D30_L were dissociated using Accutase and replated onto 96-well plates coated with 804-G conditioned medium. Once attached, cells were stained by 2.5 μg mL^−1 propium iodide in DMEM for 12 min, washed once with DMEM and fixed with 4% paraformaldehyde for 20 min. DAPI was used to quantify total number of cells after fixation. Plates were analyzed using a Molecular Devices ImageXpress High-Content Analysis System. Data was quantified using MetaXpress software.

In assay [3] the test system is GLIS3−/− PP2 cells transplanted under the kidney capsule. The experiment in a line: In vivo transplantation and drug treatment, graft apoptosis by immunohistochemistry. The arrangement: species or system SCID-beige mice. The settings on record: 15 mg/kg/day intraperitoneal for seven days, vs vehicle. How it is done: In vivo transplantation and drug treatment. WT and isogenic mutant hESCs at day 24 of differentiation (around 1 million cells) were harvested by cell scraper, mixed with 20 μl Matrigel (Corning) and transplanted under the kidney capsule of 6-8 weeks old male SCID-beige mice. For drug treatment, mice were injected intraperitoneally with 15 mg/kg/day galunisertib or vehicle for seven days. To prepare the injection cocktail, 200 mM galunisertib in DMSO was diluted ˜15 times with a 50:50 mixture of PEG300 (Sigma Aldrich) and saline (APP Pharmaceuticals). All animal work was conducted in agreement with NIH guidelines and approved by the local Institutional Animal Care and Use Committee (IACUC), the Institutional Biosafety Committee (IBC) as well as the Embryonic Stem Cell Research Committee (ESCRO).
Immunohistochemistry. Mouse kidneys with cells grafted under the capsules were washed with PBS, fixed with 4% paraformaldehyde at 4C overnight and transferred to 30% sucrose solution for dehydration. […] The slides were blocked and permeabilized in PBS solution containing 5% horse serum and 0.3% Triton for 1 hr at RT and then incubated with primary antibodies overnight at 4C followed by 1 hr incubation with fluorescence-conjugated secondary antibodies (Alexafluor, ThermoFisher Scientific) at RT. […] Fluorescent images were scored using MetaMorph® image analysis software (Molecular Devices).

Another assay concerns WT INS-GFP+ PP2-β cells. Kind of assay: Annexin V apoptosis analysis in wild-type cells. In kind it is cell-based, human. As to conditions: 10 μM. As to the method: Annexin V cellular apoptosis analysis. hESC derived cells were dissociated by Accutase and washed with cold PBS, stained with the PE/Annexin V apoptosis detection Kit (BD Bioscience, 559763) or A647-conjugated annexin V (Thermo Fisher Scientific) according to manufacturer's instructions, the samples were the analyzed by flow cytometry (BD Bioscience, FASC ARIA2) within 30 min. To include a positive control for apoptosis, cells were incubated with 10 μM Camptothecin (Sigma Aldrich) or DMSO for 4 hours prior to Annexin V staining.

For a further assay, the system named is SMAD2/3 phosphorylation. Kind of assay: Western blot of SMAD2/3 phosphorylation. In kind it is cell-based, human. As to conditions: 10 μM; GLIS3−/− cells at D30_L; vs DMSO. How it is done:
Western blot analysis. Whole-cell lysates were generated by scraping cultures on day 24 of differentiation in cold PBS, and re-suspending in complete lysis buffer (20 mM Tris pH 7.0, 150 mM NaCl, 50 mM NaF, 1% NP-40 substitute, and Thermo Scientific HALT protease inhibitor cocktail 1:100). Lysates were loaded onto 10% NuPage Bis-Tris gels (Invitrogen), resolved by electrophoresis, and transferred to PVDF membranes (Bio-Rad). Membranes were blocked with 5% bovine serum albumin in TBS+ 0.05% Tween and probed overnight with primary antibody. The antibodies were rabbit anti-phospho-SMAD2/3 (1:250, Cell Signaling), rabbit anti-SMAD2/3 XP (1:5000, Cell Signaling), and mouse anti-β-actin (1:50000, Sigma A1978). Membranes were washed and incubated for 1 hr with HRP-conjugated secondary antibody (Bio-Rad) in 5% milk-TBS-0.05% Tween and developed using SuperSignal West Pico (Thermo Scientific) or Immobilon (Millipore) ECL substrate.
(Immunoblotting shows a protein as a band on a membrane.)

[4] abbreviates: 10 μM, GLIS3−/− cells at D30_L, vs DMSO.

The structures appear in SMILES notation.

As for `NC(=O)c1ccc(-c2nc(-c3ccccn3)c(-c3ccc4c(c3)OCO4)[nH]2)cc1` [SB431642], the cell apoptosis rate result in the assay on GLIS3−/− PP2-β cells [1] (1 μM) was “significantly decrease”. Moreover, the cell death rate entry in the assay on GLIS3−/− PP2-β cells [2] (1 μM) is “significantly decrease”.

The IC50 is the concentration that inhibits the measured activity by half. Turning to `Cc1cccc(-c2nn3c(c2-c2ccnc4ccc(C(N)=O)cc24)CCC3)n1` [galunisertib], the “cell apoptosis rate in the transplanted cells (cleaved caspase-3+/STEM121+ cells in STEM121+ cells)” value in assay [3] (cells pre-treated with 10 μM for 16 hr) is on record as “significantly decreases”. In assay [3], the “cell apoptosis rate in INS+ and PDX1+ cells in the grafts” value is on record as “significantly decreases”. For the same compound, the “cell apoptosis of WT INS+ cells” value in the assay with WT INS-GFP+ PP2-β cells was “does not affect”. For the same compound, the “number of INS+ cells” value with GLIS3−/− PP2-β cells [1] (10 μM, GLIS3−/− PP2-β cells, normalized to DMSO) was “increases”. In the assay with GLIS3−/− PP2-β cells [1] (setting [4]), the cell apoptosis result was “significantly reduces”. Further, the concentration for half-maximal inhibition (IC50) with GLIS3−/− PP2-β cells [1] (Homo sapiens, dose-dependent, inhibitory curve FIG. 4c, read-out: IC50, rescue of loss of GLIS3-induced pancreatic β-cell apoptosis) stood at 1140 nM. Moreover, in the assay on SMAD2/3 phosphorylation, the “increased SMAD2/3 phosphorylation” value is “inhibits”. Further, in the assay with GLIS3−/− PP2-β cells [2] (setting [4]), the cell death entry is reported as “significantly reduces”.

With `Cc1cccc(-c2[nH]c(C(C)(C)C)nc2-c2ccc3nccnc3c2)n1` [SB525334], in the assay on GLIS3−/− PP2-β cells [1] (1 μM), the cell apoptosis rate result is listed as “significantly decrease”. In addition, the cell death rate result in the assay on GLIS3−/− PP2-β cells [2] (1 μM) is “significantly decrease”.

For the compound `Cc1cccc(-c2nn(C(=S)Nc3ccccc3)cc2-c2ccnc3ccccc23)n1` [A83-01], the cell apoptosis rate result in the assay with GLIS3−/− PP2-β cells [1] (10 μM) was “significantly decrease”. Also, the cell death rate result in the assay on GLIS3−/− PP2-β cells [2] (10 μM) is “significantly decrease”.

`c1ccc(-c2[nH]ncc2-c2ccnc3ccccc23)nc1` [LY-364947]: in the assay on GLIS3−/− PP2-β cells [1] (10 μM), the cell apoptosis rate result is “significantly decrease”. For the same compound, in the assay on GLIS3−/− PP2-β cells [2] (10 μM), the cell death rate result is listed as “significantly decrease”.

(Values after patent US12421499B2, “Method of differentiation of human pluripotent stem cells to monohormonal cells” (Cornell University, priority 2018, dated 2025).)
